US5582832A, “Compositions for topical application to skin” (priority 1995, dated 1996)

Legend:
[1] = test system: 25D degradation (vitamin D metabolism in keratinocytes); experiment: Vitamin D metabolism in keratinocytes: 25D degradation; format: cell-based, human; details: for 25D (% degradation): Table 3, 10 uM
Experimental: (§1) 1. Normal human keratinocytes isolated from neonatal foreskins by trypsin treatment were grown in DME medium/10% fetal calf serum in the presence of irradiated 3T3 mouse fibroblasts for establishing dividing keratinocyte colonies. Keratinocytes were grown under the above condition until their third passage.
(§2) 80% confluent keratinocytes were incubated with 0.05 uCi of ^3 H-25D or ^3 H-1,25D for two hours or 20 hours in the presence of 1-100 uM of the different compounds. Reaction was stopped by addition of methanol and the cells and medium were extracted using chloroform:methanol. The chloroform layer was separated, dried and spotted on TLC plates. […] The amount of radioactivity in each lane was quantitated using the BioScan radioactive plate reader. The amount of radioactivity remaining in the peak area of 25D and 1,25D were calculated as % of control. The % remaining was subtracted from 100 to get the % degradation of the metabolites.
(§3) The data are expressed as mean of % degradation of 25D or 1,25D. The range is also given in parenthesis.

[2] = test system: keratinocytes; experiment: Rate of DNA synthesis (3H-thymidine incorporation) in keratinocytes; format: cell-based, human
Experimental: as §1
2. For the experiments, third passage keratinocytes were plated into a serum-free keratinocyte growth medium (KSFM; obtained from Life Technologies, Grand Island, N.Y.) containing 0.09 mM calcium. 20,000 to 30,000 cells were plated into each well of 24 well cell culture plates and grown for 5 days, until the cells reach about 80% confluence.
3. Medium was changed to fresh medium and the various test materials were added to the medium from an ethanolic stock solution (10:00 AM). The final ethanol concentration in the cultures was kept below 0.2%. Control cultures received no tested material but were dosed with 0.2% ethanol. Each compound or combination was tested in three separate wells. By 4:00 PM, 1 uCi of ^3 H-thymidine (Amersham Corp., Sp activity 40 Ci/mmol) was added to the 1 ml medium in each well. The cells were incubated overnight and […] (10:00 AM next day) the amount of ^3 -thymidine associated with the cellular DNA of keratinocytes was assessed as described below.
4. The medium was aspirated, and the wells washed with 1 ml phosphate-buffered saline. The DNA and proteins of the cells in the plate were then precipitated by adding 1 ml of ice-cold 10% trichloroacetic acid (TCA). The plates were left on ice for 30 minutes to complete the precipitation process. TCA was then aspirated and each well was then washed four times with 5% TCA. The plates were then dried on a filter pad and the cells in the wells were dissolved in 0.5 ml of 0.1N sodium hydroxide. The sodium hydroxide was then neutralized using 0.1N hydrochloric acid and the solution (1 ml total volume) was then transferred to a scintillation vial. 50 μl samples from each vial were used for protein assay using BCA protein assay reagent obtained from Pierce Chemical Company. 8 ml of a scintillation fluid (Ecolume) was added to the rest of the solution in the vial, and the vials were counted in a scintillation counter to determine the amount of radioactivity in each vial. The DNA synthesis rate was then calculated as cpm ^3 H thymidine incorporated into total cellular DNA/microgram of cell protein for each individual well. Mean and standard deviation for each group was also calculated.
Rationale for using 1,25D is that in in vivo situation, these azoles will inhibit the endogenous degradation of the 1,25D which is obtained from the circulation. Azoles will act in keratinocytes to increase the endogenous levels of 1,25D within cells. Keratinocytes (70% confluent) were incubated with 10 uM of the different azoles in the presence of 100 nM 1,25D. One of the groups was treated with 5 uM of ceramide of Formula A in the medium. After four hours, all the wells were treated with 1 uCi ^3 H-thymidine and the rate of DNA synthesis was estimated as described in the methods.
Keratinocytes were incubated with 1 or 10 uM of Econazole in the presence of 1 uM of the different ceramide analogues and 100 nM 1,25D in the medium. Thymidine incorporation was measured with an overnight incubation as described in Example 2.

[3] = test system: histamine induced erythema; details: cited from earlier work
[4] = test system: 1,25D degradation (vitamin D metabolism in keratinocytes); experiment: Vitamin D metabolism in keratinocytes: 1,25D degradation; format: cell-based, human; details: for 1,25D (% degradation): Table 3, 10 uM
Experimental: as §1, §2, §3

[5] = test system: keratinocytes; details: exogenous or endogenous; cited from earlier work
[6] = test system: vitamin D metabolism; details: cited from earlier work
[7] = Table 2, 1 uM, 20 hour incubation, mean of duplicate (range)

c1ccc(-c2ccc(C(c3ccccc3)n3ccnc3)cc2)cc1 (stereo not shown) [Bifonazole]
blocking of 25D degradation (in words) ([1]; 1 uM, 20 hours (Table 2)): very effective
blocking of 25D metabolism (in words) ([1]; 2 hours): ineffective
blocking of 25D metabolism (in words) ([1]; 20 hours): very effective
% degradation (25D) ([1]; Table 1, 10 uM compound): 15%
25D degradation (%) [1, 7]: 41.2 (35.4-47.1) %
25D (% degradation) ([1]; 2 hours): 89%
25D (% degradation) ([1]; 20 hours): 15%
DNA synthesis, % of control (100 nM 1,25D + 5 uM ceramide Formula A) ([2]; Table 4, 10 uM azole (or no azole) + 100 nM 1,25D + 5 uM ceramide Formula A, mean + SD, * = synergistic effect, 1440 min): 44.4 + 7.3 % of control
DNA synthesis, % of control (azole, only 100 nM 1,25D) ([2]; Table 4, 10 uM azole, 100 nM 1,25D, no ceramide, mean + SD, 1440 min): 75.8 + 4.3 % of control
DNA synthesis (% control) ([2]; Tables 4A-4F, 100 nM 1,25D, azole 10 uM, ceramide Formula A 5 uM, 1440 min): 75.8 % control
DNA synthesis ([2]; Tables 4A-4F, 100 nM 1,25D, azole 10 uM, ceramide Formula A 5 uM, mean + SD): 111256 + 6355 cpm 3H thymidine incorporated
direct anti-inflammatory activity (in words) [3]: direct anti-inflammatory activity
blocking of 1,25D degradation (in words) ([4]; 1 uM, 20 hours (Table 2)): very effective
blocking of 1,25D metabolism (in words) ([4]; 2 hours): ineffective
blocking of 1,25D metabolism (in words) ([4]; 20 hours): very effective
% degradation (1,25D) ([4]; Table 1, 10 uM compound): 56%
1,25D degradation (%) [4, 7]: 37.0 (25.4-48.6) %
1,25D (% degradation) ([4]; 2 hours): 83%
1,25D (% degradation) ([4]; 20 hours): 56%

C=C1CC[C@H](O)C/C1=C/C=C1\CCC[C@]2(C)[C@@H]([C@H](C)CCCC(C)(C)O)CC[C@@H]12 [25-hydroxyvitamin D (25D), 25-hydroxyvitamin D]
inhibition of DNA synthesis and induction of differentiation (in words) [5]: inhibit DNA synthesis (i.e., inhibit growth) and induce differentiation of keratinocytes

CC(=O)N1CCN(c2ccc(OCC3COC(Cn4ccnc4)(c4ccc(Cl)cc4Cl)O3)cc2)CC1 (stereo not shown) [Ketoconazole, ketoconazole]
inhibition of vitamin D metabolism (in words) [6]: established inhibitor of vitamin D metabolism

C=C1/C(=C\C=C2/CCC[C@]3(C)[C@@H]([C@H](C)CCCC(C)(C)O)CC[C@@H]23)C[C@@H](O)C[C@@H]1O [1,25-(OH)2 D3]
inhibition of DNA synthesis and induction of differentiation (in words) [5]: inhibit DNA synthesis (i.e., inhibit growth) and induce differentiation of keratinocytes
